From US10617736B2, “Method for modulating insulin-independent glucose transport using teneurin C-terminal associated peptide (TCAP)” (priority 2014, dated 2020)
Ends that are not written are not given here.

Experiments:
latrophilin-1 = molecular target: T1, latrophilin-1 (Mus musculus, UniProt Q80TR1); assay: Co-localization of FITC-TCAP-1 with latrophilin-1 in Hypo E-38 cells; format: binding
T1 construct: only latrophilin 1 and 3 could be detected in this cell line or in the intact mouse brain; endogenous in cells; host or cells: Hypo E-38 (mHypoE-38) immortalized embryonic mouse hypothalamic neurons
T1 sequence (Q80TR1 29-1466): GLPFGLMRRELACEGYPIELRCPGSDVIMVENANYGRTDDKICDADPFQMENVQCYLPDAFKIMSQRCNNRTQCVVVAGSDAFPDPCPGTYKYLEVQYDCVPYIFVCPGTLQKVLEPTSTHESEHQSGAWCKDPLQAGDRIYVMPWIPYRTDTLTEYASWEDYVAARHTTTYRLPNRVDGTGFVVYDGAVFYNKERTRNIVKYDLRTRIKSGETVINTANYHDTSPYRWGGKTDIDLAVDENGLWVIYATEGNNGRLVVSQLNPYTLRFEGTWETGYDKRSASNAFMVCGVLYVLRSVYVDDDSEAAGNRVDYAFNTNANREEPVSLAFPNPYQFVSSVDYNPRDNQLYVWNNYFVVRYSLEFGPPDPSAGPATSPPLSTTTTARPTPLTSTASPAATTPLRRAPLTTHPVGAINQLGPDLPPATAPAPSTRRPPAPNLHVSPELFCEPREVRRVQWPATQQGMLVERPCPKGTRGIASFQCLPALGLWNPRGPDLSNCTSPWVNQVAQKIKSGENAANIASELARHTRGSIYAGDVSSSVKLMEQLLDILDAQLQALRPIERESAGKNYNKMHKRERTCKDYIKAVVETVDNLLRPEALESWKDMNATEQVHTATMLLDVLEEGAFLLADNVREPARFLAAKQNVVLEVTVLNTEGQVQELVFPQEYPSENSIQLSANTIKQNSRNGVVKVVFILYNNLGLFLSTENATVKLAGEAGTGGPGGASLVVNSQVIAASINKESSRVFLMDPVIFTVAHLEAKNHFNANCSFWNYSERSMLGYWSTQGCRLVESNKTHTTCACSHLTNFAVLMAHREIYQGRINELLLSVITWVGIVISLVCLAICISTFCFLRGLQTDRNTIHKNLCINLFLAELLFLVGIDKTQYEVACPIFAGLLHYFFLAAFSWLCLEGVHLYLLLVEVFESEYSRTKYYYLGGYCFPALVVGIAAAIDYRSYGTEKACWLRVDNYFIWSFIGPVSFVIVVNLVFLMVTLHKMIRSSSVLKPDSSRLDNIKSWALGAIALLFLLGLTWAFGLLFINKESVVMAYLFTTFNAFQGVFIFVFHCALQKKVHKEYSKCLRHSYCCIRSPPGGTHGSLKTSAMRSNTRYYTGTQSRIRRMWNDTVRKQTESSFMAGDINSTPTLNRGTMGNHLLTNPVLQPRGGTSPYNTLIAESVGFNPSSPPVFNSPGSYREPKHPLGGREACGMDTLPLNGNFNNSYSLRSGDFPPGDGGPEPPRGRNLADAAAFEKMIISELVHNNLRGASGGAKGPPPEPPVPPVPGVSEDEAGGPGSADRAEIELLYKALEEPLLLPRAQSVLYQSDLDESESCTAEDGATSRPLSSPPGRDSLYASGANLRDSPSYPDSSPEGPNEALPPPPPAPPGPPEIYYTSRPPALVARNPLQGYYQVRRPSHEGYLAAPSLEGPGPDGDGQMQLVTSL
Experimental: (§1) The [K8]-TCAP-1 peptide was labeled with fluorescein isothiocyanate (FITC) according to the EZ-label TITC Protein labeling kit (Pierce Biotechnology, Rockford Ill.). FITC was dissolved in dimethylformamide, mixed with the [K8]-TCAP-1 at a 24:1 excess molar ratio and incubated for 2 h at RT in the dark to allow for the conjugation of the primary amine of the lysine group. A dextran column was used to remove the unconjugated FITC and the absorbance of each fraction was measured at 280 nm to determine the elution point of the conjugated peptide in phosphate buffered saline (PBS; 0.1M phosphate, 0.15 M NaCl, pH7.2). The four fractions with the highest protein absorbance readings were combined and sterilize-filtered using an Acrodisc Syringe 0.2 μm Supor low protein binding filter (Pall Life Sciences, Ann Arbor, Mich.). […] The amount of the FITC required to be injected as a control was determined by applying different PBS-diluted preparations of FITC on a nitrocelluose membrate. The level of fluorescence was directly compared to that of a spot of the FITC-[K8]-TCAP-1 conjugate to be administered and that dilution was used for the administration after sterilize-filtration indicated above. Fluorescence was measured using an EP Chemi II Darkroom system (UVP, Upland, Calif.) with the sequential integration function of LabWorks Image acquisition and analysis software. […]

[1] = system: skeletal mouse muscle fibers; assay: FITC-TCAP-1 binding assay on skeletal mouse muscle sections; settings: fluorescence, co-staining with β-DG
Experimental: as §1

mHypoE-38 neurons [2] = assay: 3H-2-deoxyglucose uptake in mHypoE-38 hypothalamic neurons; format: cell-based, mouse; settings: Hypo-E38 cells, potassium-free media (FIG. 11F, G)
C2C12 myocytes = assay: 3H-2-deoxyglucose uptake in C2C12 myocytes; format: cell-based, mouse; settings: 100 nM
Experimental: The effect of TCAP-1 on glucose uptake in muscle cells was examined in a C2C12 mouse myocyte cell line. C2C12 myocytes were cultured in Dulbecco's Modified Eagle Medium (DMEM) containing 4500 mg/L D-glucose, L-glutamine, and 25 mM HEPES buffer, without sodium pyruvate or phenol red (Gibco, Cat. No. 21063029), supplemented with 20% heat-inactivated fetal bovine serum (FBS), 100 U/ml penicillin and 100 μg/ml streptomycin. Cells were maintained at 80% confluency at 37° C. in a humidified CO2 incubator. To initiate differentiation, myocytes were further cultured in DMEM supplemented with 10% heat-inactivated horse serum (HS), transferrin, 100 U/ml penicillin and 100 μg/ml streptomycin. Myocytes were allowed to differentiate into multi-nucleated myotubes for 5 days before experimentation. 24 hours prior to experimentation, medium was changed. At day 5 of differentiation, cells were deprived of serum and incubated in Minimal Essential Medium containing 1000 mg/L D-glucose, L-glutamine, without nucleosides (Gibco, Cat. No. 12561049) for 5 hours at 37° C. prior to incubation with insulin, TCAP-1, or saline. Cells were washed twice in glucose-free HEPES-buffered solution (HBS), containing 140 mM NaCl, 20 mM HEPES, 5 mM KCl, 2.5 mM MgSO4 and 1 mM CaCl2, followed by determinations of transport of 3H-2-deoxyglucose for 10 minutes at 0.5 μCi/ml at room temperature. Uptake of 3H-2-deoxyglucose was stopped immediately after 10 minutes with three washes of ice-cold 0.9% NaCl solution. Parallel experiments with 5 μM of cytochalasin B were done to ensure that glucose uptake was of transporter-inhibitable transport The cells were digested with 1 ml of 0.05 N NaOH. Cell lysates were used for determination of radioactivity by a beta liquid scintillation counter. Experiments were repeated three times with 3 wells per condition per replication. […] Cell lysates were used for determination of radioactivity by a beta liquid scintillation counter. […]

mHypoE-38 neurons [3] = assay: 3H-2-deoxyglucose uptake in mHypoE-38 hypothalamic neurons; format: cell-based, mouse
Experimental: The effect of TCAP-1 on glucose uptake in brain cells was examined in immortalized […] hypothalamic cells. Immortalized mHypoE-38 hypothalamic embryonic mouse neurons (gift from Dr. Denise Belsham, University of Toronto) were grown in Dulbecco's Modified Eagle Medium (DMEM) containing 4500 mg/L D-glucose, L-glutamine, and 25 mM HEPES buffer, without sodium pyruvate or phenol red (Gibco, Cat. No. 21063029), supplemented with 5% heat-inactivated fetal bovine serum (FBS), 100 U/ml penicillin and 100 μg/ml streptomycin. Cells were maintained at 60-70% confluency at 37° C. in a humidified CO2 incubator. To passage, cells were washed once in sterile PBS, trypsinized and seeded at a density of 100,000 cells per 3.5 cm plate and allowed to grow for 2-3 days. 24 hours prior to experimentation, medium was changed. mHypoE-38 hypothalamic cells were grown in 6-well tissue culture dishes (Corning Incorporated, Cat. No. 3516) at a seeding density of200 000 cells/9.5 cm^2 well in a 37° C. normoxic incubator. Cultures were grown for 36 hours to 85% confluence prior to experimentation. At day 3 post-plating, cells were washed twice with Locke's buffer (154 mM NaCl, 5.6 mM KCl, 2.3 mM CaCl2, 3.6 mM NaHCO3, 5 mM HEPES) without serum and glucose. The culture was incubated in the Locke's buffer for 1 hour at 37° C. followed by exposure to 100 nM insulin, 100 nM TCAP-1, 100 nM SC-TCAP-1, or saline. KCl (40 mM) and […] (0.5 μCi/ml) were added to culture 5 minutes before termination of treatment exposure. Uptake of ^3H-2-deoxyglucose was stopped immediately after 5 minutes with three washes of ice-cold 0.9% NaCl solution. Parallel experiments with 5 μM of cytochalasin B were performed to ensure that glucose uptake was of transporter-inhibitable transport. The cells were digested with 1 ml of 0.05 N NaOH at 0, 15, 30, 45, 60, 90 and 120 minutes after treatment. Cell lysates were used for determination of radioactivity by a beta liquid scintillation counter. Experiments were repeated three times with 3 wells pear condition per replication. […] hypothalamic cells were cultured as above and treated with 100 nM insulin, 100 nM TCAP-1 or saline, exposed to 5.6 mM or 40 mM KCl and 0.5 μCi/well 3H-2-deoxy glucose, and subsequently lysed with 50 mM NaOH. Radioactivity in cell lysates was counted using a liquid scintillation counter.

Question: How did the “co-localization with latrophilin-1 immunoreactivity” value (latrophilin-1) turn out when “FITC-TCAP-1: [K8]-TCAP-1 peptide labeled with fluorescein isothiocyanate (FITC) (QQLLGTGKVQGYDGYFVLSVEQYLELSDSANNIHFMRQSEI; ends and bridges not checked; also: FITC label, attachment site not given here)” was run?
Answer: strong co-localization

Question: What about the “binding to 5 μm sections of mouse gastrocnemius muscle” value [1] of the same substance?
Answer: preferentially binds to the membranes of individual skeletal mouse muscle fibers

Question: With insulin as the substance, how does the “3HDG uptake in potassium-free media” value (mHypoE-38 neurons [2]) read?
Answer: decreased insulin-dependent glucose uptake to baseline levels

Question: And the 3H-2-deoxyglucose uptake (C2C12 myocytes; 90 minutes)?
Answer: 332.321±87.296%

Question: What about the 3H-2-deoxyglucose uptake (C2C12 myocytes; after 30 minutes) of the same substance?
Answer: 284.520±47.129%

Question: And the 3H-2-deoxyglucose uptake (mHypoE-38 neurons [3]; 100 nM, 5.6 mM KCl (low KCl))?
Answer: 91.423±5.226%

Question: And the 3H-2-deoxyglucose uptake (mHypoE-38 neurons [3]; 100 nM, 40 mM KCl exposure)?
Answer: 288.572±24.527%

Question: What about the “3H-2-deoxyglucose uptake value relative to baseline” value (mHypoE-38 neurons [3]; 100 nM, 40 mM KCl, 45 minutes) of the same substance?
Answer: 253±21.38%

Question: What about the “3HDG uptake in whole cells over time” value (mHypoE-38 neurons [3]; Hypo-E38 cells (FIG. 11C-E)) of the same substance?
Answer: uptake in 3HDGlucose within 30 min and remained high until after 60 min

Question: And the 3H-2-deoxyglucose uptake (mHypoE-38 neurons [3]; cells pretreated with MEK inhibitor (U0126) for 1 hour, 40 mM KCl)?
Answer: 108.069±13.671

Question: And the 3H-2-deoxyglucose uptake (mHypoE-38 neurons [3]; non-MEK-inhibited cells, 40 mM KCl)?
Answer: 162.846±1.813
